Laboratory results published in paper PMC12436592 (Nature Communications, 2025).
Where “and” joins values, the source holds several entries; their conditions need not be identical. Identical values can stand only once.

Legend:
hP2X7R [1] = molecular target: T1, hP2X7R (Homo sapiens, UniProt Q99572); experiment: Ethidium bromide accumulation in hP2X7R-expressing HEK293 cells; format: cell-based; parameters: expressed in transfected cells; details: for ΔΔGexp: relative to UB-ALT-P30, from experimental pIC50 values, T = 298 K; for MAX100 (% of maximum accumulation, replicates 1-3): single replicates
T1 sequence (Q99572 1-595): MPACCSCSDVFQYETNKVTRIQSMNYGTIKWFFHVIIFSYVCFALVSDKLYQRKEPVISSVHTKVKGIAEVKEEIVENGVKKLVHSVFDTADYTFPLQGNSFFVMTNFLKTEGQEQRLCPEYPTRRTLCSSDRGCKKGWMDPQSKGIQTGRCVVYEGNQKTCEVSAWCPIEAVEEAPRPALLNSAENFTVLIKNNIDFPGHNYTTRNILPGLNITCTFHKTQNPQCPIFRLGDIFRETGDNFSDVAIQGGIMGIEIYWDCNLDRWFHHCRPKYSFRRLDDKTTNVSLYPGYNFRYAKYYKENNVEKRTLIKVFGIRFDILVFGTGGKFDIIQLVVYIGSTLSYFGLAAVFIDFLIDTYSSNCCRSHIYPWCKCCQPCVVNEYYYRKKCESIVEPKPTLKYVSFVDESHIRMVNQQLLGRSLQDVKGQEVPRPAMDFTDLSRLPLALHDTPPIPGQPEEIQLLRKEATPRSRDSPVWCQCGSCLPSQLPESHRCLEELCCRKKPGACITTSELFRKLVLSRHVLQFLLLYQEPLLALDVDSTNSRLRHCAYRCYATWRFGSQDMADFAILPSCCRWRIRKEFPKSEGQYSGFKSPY
Procedure: Human P2X7R-expressing HEK293 cells were cultured in a humidified atmosphere of 5% CO2 at 37 °C in Dulbecco’s Modification of Eagle’s Medium (DMEM; Corning) supplemented with 10% (v/v) fetal bovine serum (Corning) and 1% (v/v) antibiotic–antimycotic (Gibco)[75]. To perform the assay, the DMEM was removed, and the HEK293 cells were washed with 3 mL of 1X DPBS (Dulbecco’s Phosphate-Buffered Saline; Corning). After the removal of DPBS solution, the cells were detached from the dish with 1 mL of trypsin/EDTA (Gibco), and the cells were collected by centrifugation. The cells (density of 2.25 × 10^7) were re-suspended in 4-(2-hydroxyethyl)-1-piperazineethanesulfonic acid (HEPES)-buffered salt solution consisting of 140 mM potassium chloride, 1 mM ethylene diamine tetraacetic acid (EDTA), 5 mM glucose, 20 mM HEPES, and 0.1 mM ethidium bromide (pH 7.4). The vehicles or appropriate range of concentrations of compounds (10 μL, pre-diluted in 10% (v/v) DMSO in DW from 10 mM stock) were added to each well of 96-well black plate (Corning), and 80 μL of the cell suspension was subsequently added to each well. BzATP (10 μL, pre-diluted in DW from 10 mM stock) was then added, and the final assay volume was maintained at 100 μL. After the incubation in 5% CO2 at 37 °C for 2 h, the ethidium dye uptake was detected by measuring the fluorescence (excitation wavelength of 530 nm and emission wavelength of 590 nm) of each well using a CHAMELEON™ Multi-Technology Plate Reader. The antagonistic activities of compounds are expressed as the percentages relative to the maximum accumulation of ethidium bromide observed in the control group with the stimulation of the hP2X7R by an agonist, BzATP. The IC50 values of compounds as antagonists were calculated using nonlinear regression analysis using OriginPro 9.1 software.

hP2X7R [2] = molecular target: T1, hP2X7R; experiment: Calcium influx assay, 1321N1 astrocytoma cells, BzATP EC80; format: cell-based; parameters: expressed in transfected cells; details: for IC50: 1321N1 cells, BzATP EC80, mean ± SD
From the text: For 1321N1 astrocytoma cells stably expressing the human, rat, or mouse P2X7Rs, or hP2X2Rs or hP2X4Rs, the fluorescent Ca^2+-chelating dye Fluo-4 acetoxymethyl ester (Fluo-4 AM, Thermo Fisher Scientific, Dreieich, Germany) was used. For 1321N1 astrocytoma cell lines recombinantly expressing the hP2X1Rs or hP2X3Rs, the FLIPR® Calcium 5 Assay Kit (Molecular Devices, San José, CA, USA) was employed. Human, rat, and mouse P2X7Rs as well as hP2X1Rs, hP2X2Rs, hP2X3Rs, and hP2X4Rs were recombinantly expressed in 1321N1 astrocytoma cells using a retroviral expression system[72]–[74].
On the first day, 45,000 cells per well (30,000 cells for the human P2X3 receptor-expressing cells) were seeded into a 96-well polystyrene microplate with a black, flat bottom in a final volume of 200 µL. After overnight incubation at 37 °C and 10% CO2 (5% CO2 for the human P2X3R-expressing cell line), the medium was removed by inverting the plate, and the cells were loaded with dye solution. Hanks’ balanced salt solution (HBSS, Thermo Fisher Scientific, Dreieich, Germany) was used as the assay buffer for human P2X1R, P2X2R, P2X3R, and P2X4R. For the P2X7Rs, a different assay buffer was used: 150 mM sodium-glutamate, 5 mM KCl, 0.5 mM CaCl2, 0.1 mM MgCl2, 10 mM D-glucose, 25 mM 4-(2-hydroxyethyl)-1-piperazineethanesulfonic acid (HEPES), pH 7.4. The dye solutions were freshly prepared. The Fluo-4 AM solution contained 3 µM of Fluo-4 AM in assay buffer and 1% of the non-ionic detergent Pluronic F-127® (Sigma-Aldrich, Taufkirchen, Germany). The Calcium 5 dye, used for hP2X1Rs and hP2X3Rs, was prepared in HBSS buffer. Cells were loaded with Fluo-4 AM and incubated for 1 h at room temperature with gentle shaking (100 rpm), while those loaded with the Calcium 5 dye were incubated for 1 h at 37 °C. After incubation, the dye solution was carefully removed from the plate, and buffer was added to the cells for the evaluation of agonists. […] The agonist solution was prepared in a 96-well transparent plate, obtaining the respective EC80 values. As a control, assay buffer without the test compound was used. After 30 min of incubation with antagonist, the plates were measured using a fluorescence imaging plate reader NOVOstar (BMG Labtech GmbH, Offenburg, Germany) at an excitation wavelength of 485 nm and an emission wavelength of 520 nm, for 30 s at 0.4 s intervals. Calcium influx measurements were then initiated by automatic addition of 20 µL of agonist solution by the plate reader’s pipetting device. Data were analyzed using Microsoft Excel and GraphPad Prism (Version 8.0, San Diego, CA, USA). EC80 and IC50 values were calculated using nonlinear regression with a sigmoidal dose-response equation.

[3] = BzATP 6 μM, antagonist concentration 1 (unit not given)
[4] = BzATP 6 μM, antagonist concentration 10 (unit not given)
[5] = BzATP 6 μM, antagonist concentration 50 (unit not given)
[6] = BzATP 6 μM, antagonist concentration 100 (unit not given)
[7] = BzATP 6 μM, antagonist concentration 500 (unit not given)
[8] = BzATP 6 μM, antagonist concentration 1000 (unit not given)
[9] = BzATP 7 μM, antagonist concentration 0.1 (unit not given)
[10] = BzATP 7 μM, antagonist concentration 0.5 (unit not given)
[11] = BzATP 7 μM, antagonist concentration 1 (unit not given)
[12] = BzATP 7 μM, antagonist concentration 5 (unit not given)
[13] = BzATP 7 μM, antagonist concentration 10 (unit not given)
[14] = BzATP 7 μM, antagonist concentration 100 (unit not given)

For `O=C(NNc1ccccc1Cl)C12CC3CC(CC(C3)C1)C2` [UB-ALT-P30, reference compound], the “mean % of maximum accumulation” value (hP2X7R [1]; [3]) was 94.223%, the “mean % of maximum accumulation” value (hP2X7R [1]; [4]) was 86.3844% and the “mean % of maximum accumulation” value (hP2X7R [1]; [5]) was 53.8482%. The “mean % of maximum accumulation” value (hP2X7R [1]; [6]) was 26.7232%, the “mean % of maximum accumulation” value (hP2X7R [1]; [7]) was 9.424% and the “mean % of maximum accumulation” value (hP2X7R [1]; [8]) was 9.144%. The IC50 (hP2X7R [1]; hP2X7R, ethidium bromide accumulation, mean ± SD, triplicate) was 47 ± 4 nM, the ΔΔGexp (hP2X7R [1]) was 0 kcal/mol and the “MAX100 (% of maximum accumulation, replicates 1-3)” value (hP2X7R [1]; [3]) was 87.3374 and 88.4652 and 106.867. The “MAX100 (% of maximum accumulation, replicates 1-3)” value (hP2X7R [1]; [4]) was 79.5317 and 91.4204 and 88.2012, the “MAX100 (% of maximum accumulation, replicates 1-3)” value (hP2X7R [1]; [5]) was 46.9211 and 58.6273 and 55.9961 and the “MAX100 (% of maximum accumulation, replicates 1-3)” value (hP2X7R [1]; [6]) was 22.0295 and 25.5481 and 32.5919. For the same compound, the “MAX100 (% of maximum accumulation, replicates 1-3)” value (hP2X7R [1]; [7]) was 9.107 and 5.6244 and 13.5397, the “MAX100 (% of maximum accumulation, replicates 1-3)” value (hP2X7R [1]; [8]) was 6.418 and 4.862 and 16.1509 and the IC50 (hP2X7R [2]) was 17.8 nM and 18 nM. For the same compound, the “normalized calcium signal, hP2X7R IC50 curve” value (“normalized calcium signal” for short) (hP2X7R [2]; Log(c) M -9, 0.001 µM) was 71.6317 and 73.6475 and 92.6717 and 89.8426 and 81.3931.
`CC12CC3CC1(C)C1(C)CC3(C(=O)NNc3ccccc3Cl)CC21C` [UB-MBX-46] was tested, and the “mean % of maximum accumulation” value (hP2X7R [1]; [9]) was 86.0633%, the “mean % of maximum accumulation” value (hP2X7R [1]; [10]) was 74.1428% and the “mean % of maximum accumulation” value (hP2X7R [1]; [11]) was 59.2287%. The “mean % of maximum accumulation” value (hP2X7R [1]; [12]) was 27.1109%, the “mean % of maximum accumulation” value (hP2X7R [1]; [13]) was 10.5059% and the “mean % of maximum accumulation” value (hP2X7R [1]; [14]) was 11.5505%. For the same compound, the ΔΔGexp (hP2X7R [1]) was -2.37 ± 0.32 kcal/mol, the “MAX100 (% of maximum accumulation, replicates 1-3)” value (hP2X7R [1]; [9]) was 84.5638 and 89.1729 and 84.4531 and the “MAX100 (% of maximum accumulation, replicates 1-3)” value (hP2X7R [1]; [10]) was 75.8389 and 73.3083 and 73.2812. The “MAX100 (% of maximum accumulation, replicates 1-3)” value (hP2X7R [1]; [11]) was 53.915 and 63.4586 and 60.3125, the “MAX100 (% of maximum accumulation, replicates 1-3)” value (hP2X7R [1]; [12]) was 28.9336 and 34.5865 and 17.8125 and the “MAX100 (% of maximum accumulation, replicates 1-3)” value (hP2X7R [1]; [13]) was 10.962 and 9.774 and 10.7812. The “MAX100 (% of maximum accumulation, replicates 1-3)” value (hP2X7R [1]; [14]) was 12.4534 and 11.7293 and 10.4688, the activity at 0.0003 µM (hP2X7R [2]; 1321-N1, Log(c) M -9.52288, read-out: normalized calcium signal, hP2X7R IC50 curve) was 82.4% and the activity at 0.0001 µM (hP2X7R [2]; 1321-N1, Log(c) M -10, read-out: normalized calcium signal, hP2X7R IC50 curve) was 110%. The activity at 30 pM (hP2X7R [2]; 1321-N1, Log(c) M -10.5229, read-out: normalized calcium signal, hP2X7R IC50 curve) was 100%, the IC50 (hP2X7R [2]) was 0.514 ± 0.035 nM and the “normalized calcium signal” value (hP2X7R [2]; Log(c) M -9.52288, 0.0003 µM) was 83.2395 and 75.8405 and 85.4678 and 91.9881. For the same compound, the “normalized calcium signal” value (hP2X7R [2]; Log(c) M -10, 0.0001 µM) was 91.6497 and 103.346 and 103.977 and the “times more potent than UB-ALT-P30 on the hP2X7R” value (hP2X7R [2]; calcium influx) was ~ 35 x.
